Test results as given in US8486965B2, “Pyrrolo[2,3-b]pyridine derivative and use thereof for treatment of cancer” (Takeda Pharmaceutical Company Limited, priority 2009, dated 2013).

Test system: Hedgehog signal transduction system (Smo)
Assay: Gli reporter luciferase assay in NIH-3T3/Gli reporter cells stimulated with mouse Shh-N end fragment
Format: cell-based
Settings: NIH3T3; 1 μM compound; NIH-3T3/Gli reporter cells with mouse Shh-N end fragment culture supernatant, 48 hr; luciferase activity, control without compound as 100; read-out: inhibition rate (%) at 1 μM
Source text: Inhibition of the Hedgehog signal transduction system can be measured, for example, by quantifying a decrease in the expression level of a reporter gene connected to the downstream of the Gli binding site based on the fluorescence intensity according to the following Experimental Example 1. Alternatively, it can be measured by quantifying the expression of Gli-1 mRNA in a cell extract by quantitative PCR method and the like. A compound that inhibits Hedgehog signal targets Smo, which can be confirmed, for example, by binding fluorescence-labeled Cyclopamine and a test compound to cells expressing Smo, measuring the fluorescence level of the cell, and comparing the value with that without addition of a test compound to find a decrease.
Gli reporter plasmid was constructed by inserting 8×Gli-binding site and chicken δ-crystalline promoter into the upstream of luc+ of pGL3 (Promega).
prepared in reference to the base sequence described in GenBank accession No.; X02187, and chicken genome DNA (Clontech) as a template. PCR reaction was performed using Pfu Turbo (Stratagene) and following the attached protocol. The obtained 108 bp fragment was digested with restriction enzymes BglII and HindIII, and inserted into BglII-HindIII site of pGL3 to give plasmid pGL3/δ-cry promoter.
As 8× Gli-binding site, a sequence containing eight 9-bp Gli bound consensus sequences (GACCACCCA) described in Yoon et al., J. Biol. Chem., vol. 273, pages 3496-3501 (1998) was prepared from synthetic DNA. That is, two synthetic DNAs,
were heat treated at 95° C. for 2 minutes, and incubated at 37° C. for 1 hr for annealing to give a double stranded DNA of the above-mentioned two synthetic DNAs. The obtained double stranded DNA was digested with restriction enzymes BglII and KpnI, and the obtained DNA fragment was inserted into BglII-KpnI site of pGL3/δ-cry promoter to construct plasmid pGL3/δ-cry promoter, 8× Gli binding site, i.e., Gli reporter plasmid. 2. Construction of Plasmid for Expression of Mouse Shh-N End Fragment
As a material for construction of plasmid for Shh-N end fragment expression, mouse Shh cDNA was cloned at first.
The mouse Shh cDNA was cloned by Nested PCR method using mouse 11-day fetus cDNA (Clontech) as a template. The primer sequence was prepared in reference to the base sequence described in GenBank accession No.; NM_009170.
Using the mouse Shh cDNA sequence obtained as mentioned above as a template, a partial cDNA sequence wherein stop codon (TGA) was added to 3′-terminal of cDNA sequence encoding 1st to 198th amino acid sequence of mouse Shh was obtained by PCR method. As the primer set,
In the manner mentioned above, a plasmid for mouse Shh-N end fragment expression, pcDNA3.1/mShh-N, was constructed.
HEK293 cells were grown in D-MEM medium (Invitrogen) containing 10% fetal bovine serum in a 10 cm dish and pcDNA3.1/mShh-N was introduced into the cells using FuGENE6 (Roche Applied Science). Thereafter, the HEK293 cells were cultured in a carbon dioxide gas incubator at 37° C. for 24 hours, and the medium was exchanged with D-MEM medium (Invitrogen) containing 2% fetal bovine serum. After culturing for 48 hr, culture supernatant containing recombinant type mouse Shh-N end fragment was obtained by filtration using a filter ([…]).
Using D-MEM (Invitrogen) containing 10% fetal bovine serum, expression plasmid pcDNA3:1 and Gli reporter plasmid (pGL3/δ-cry promoter, 8× Gli binding site) produced by the method of Experimental Example 1 were introduced into NIH-3T3 cells grown in a 10 cm dish by the use of FuGENE6 (Roche Applied Science).
After culture for 24 hr, the cells were recovered, suspended in D-MEM medium containing 10% fetal bovine serum and supplemented with Geneticin (Life Technologies Oriental, Inc.) to a final concentration of 500 μg/ml, diluted to 10^4 cells/ml, plated on a 96 well plate, and cultured in a carbon dioxide gas incubator at 37° C. to give Geneticin resistant transformed cell line. […]

SMILES | inhibition at 1 µM [%]
CCc1cc2c(nc1-c1ccccc1)c(OCC(F)(F)F)c(C(=O)NC1CCN(C(=O)CO)CC1)n2C [Example 128, 6-ethyl-N-[1-(hydroxyacetyl)piperidin-4-yl]-1-methyl-5-phenyl-3-(2,2,2-trifluoroethoxy)-1H-pyrrolo[3,2-b]pyridine-2-carboxamide] | 94
CCc1nc2c(cc1NC(=O)c1ccc(F)cc1)c(OC(C)C)c(C(=O)NC1CCN(C(=O)CO)CC1)n2C [Example 33, 6-ethyl-5-{[(4-fluorophenyl)carbonyl]amino}-N-[1-(hydroxyacetyl)piperidin-4-yl]-1-methyl-3-(1-methylethoxy)-1H-pyrrolo[2,3-b]pyridine-2-carboxamide] | 95
Cc1nc2c(nc1NC(=O)c1ccccc1)c(OC(C)C)c(C(=O)NC1CCN(C(=O)CO)CC1)n2C [Example 164, N-[1-(hydroxyacetyl)piperidin-4-yl]-3,5-dimethyl-7-(1-methylethoxy)-2-[(phenylcarbonyl)amino]-5H-pyrrolo[2,3-b]pyrazine-6-carboxamide] | 99
CCc1nc2c(cc1NC(=O)c1ccccc1)c(OC(C)C)c(C(=O)N[C@H]1CC[C@@H](O)CC1)n2C [Example 173, 6-ethyl-N-(cis-4-hydroxycyclohexyl)-1-methyl-3-(1-methylethoxy)-5-[(phenylcarbonyl)amino]-1H-pyrrolo[2,3-b]pyridine-2-carboxamide] | 98
CCc1cc2c(cc1NC(=O)c1ccccc1)c(OCC(F)(F)F)c(C(=O)NC1CCN(C(=O)CO)CC1)n2C [Example 146, 6-ethyl-N-[1-(hydroxyacetyl)piperidin-4-yl]-1-methyl-5-[(phenylcarbonyl)amino]-3-(2,2,2-trifluoroethoxy)-1H-indole-2-carboxamide] | 90
CCc1cc2c(nc1NC(=O)c1cccs1)c(OC(C)C)c(C(=O)NC1CCN(C(=O)CO)CC1)n2C [Example 133, 6-ethyl-N-[1-(hydroxyacetyl)piperidin-4-yl]-1-methyl-3-(1-methylethoxy)-5-[(thiophen-2-ylcarbonyl)amino]-1H-pyrrolo[3,2-b]pyridine-2-carboxamide] | 90
CCc1nc2c(cc1NC(=O)c1ccsc1)c(OCC(F)(F)F)c(C(=O)NC1CCN(C(=O)CO)CC1)n2C [Example 50, 6-ethyl-N-[1-(hydroxyacetyl)piperidin-4-yl]-1-methyl-5-[(thiophen-3-ylcarbonyl)amino]-3-(2,2,2-trifluoroethoxy)-1H-pyrrolo[2,3-b]pyridine-2-carboxamide] | 94
CCc1nc2c(cc1NC(=O)c1cncs1)c(OCC(F)(F)F)c(C(=O)NC1CCN(C(=O)CO)CC1)n2C [Example 53, 6-ethyl-N-[1-(hydroxyacetyl)piperidin-4-yl]-1-methyl-5-[(1,3-thiazol-5-ylcarbonyl)amino]-3-(2,2,2-trifluoroethoxy)-1H-pyrrolo[2,3-b]pyridine-2-carboxamide] | 95
CCc1nc2c(nc1NC(=O)c1ccccc1)c(OC(C)C)c(C(=O)NC1CCN(C(=O)CO)CC1)n2C [Example 163, 3-ethyl-N-[1-(hydroxyacetyl)piperidin-4-yl]-5-methyl-7-(1-methylethoxy)-2-[(phenylcarbonyl)amino]-5H-pyrrolo[2,3-b]pyrazine-6-carboxamide] | 98
CCc1cc2sc(C(=O)NC3CCN(C(=O)CO)CC3)c(OC(C)C)c2cc1NC(=O)c1ccccc1 [Example 151, 6-ethyl-N-[1-(hydroxyacetyl)piperidin-4-yl]-3-(1-methylethoxy)-5-[(phenylcarbonyl)amino]-1-benzothiophene-2-carboxamide] | 98
CCc1nc2c(cc1NC(=O)c1ccoc1)c(OCC(F)(F)F)c(C(=O)NC1CCN(C(=O)CO)CC1)n2C [Example 54, 6-ethyl-5-[(furan-3-ylcarbonyl)amino]-N-[1-(hydroxyacetyl)piperidin-4-yl]-1-methyl-3-(2,2,2-trifluoroethoxy)-1H-pyrrolo[2,3-b]pyridine-2-carboxamide] | 99
CCc1cc2sc(C(=O)NC3CCN(C(=O)CO)CC3)c(OCC(F)(F)F)c2cc1NC(=O)c1ccsc1 [Example 150, 6-ethyl-N-[1-(hydroxyacetyl)piperidin-4-yl]-5-[(thiophen-3-ylcarbonyl)amino]-3-(2,2,2-trifluoroethoxy)-1-benzothiophene-2-carboxamide] | 89
CCc1cc2sc(C(=O)NC3CCN(C(=O)CO)CC3)c(OC(C)C)c2cc1NC(=O)c1ccsc1 [Example 152, 6-ethyl-N-[1-(hydroxyacetyl)piperidin-4-yl]-3-(1-methylethoxy)-5-[(thiophen-3-ylcarbonyl)amino]-1-benzothiophene-2-carboxamide] | 97
CCc1cc2c(nc1NC(=O)c1ccc(F)cc1)c(OC(C)C)c(C(=O)NC1CCN(C(=O)CO)CC1)n2C [Example 167, 6-ethyl-5-{[(4-fluorophenyl)carbonyl]amino}-N-[1-(hydroxyacetyl)piperidin-4-yl]-1-methyl-3-(1-methylethoxy)-1H-pyrrolo[3,2-b]pyridine-2-carboxamide] | 99
CCc1nc2c(cc1NC(=O)c1ccsc1)c(OC(C)C)c(C(=O)NC1CCN(C(=O)CO)CC1)n2C [Example 61, 6-ethyl-N-[1-(hydroxyacetyl)piperidin-4-yl]-1-methyl-3-(1-methylethoxy)-5-[(thiophen-3-ylcarbonyl)amino]-1H-pyrrolo[2,3-b]pyridine-2-carboxamide] | 98
Cc1cc2c(cc1NC(=O)c1ccccc1)c(OCC(F)(F)F)c(C(=O)NC1CCN(C(=O)CO)CC1)n2C [Example 67, N-[1-(hydroxyacetyl)piperidin-4-yl]-1,6-dimethyl-5-[(phenylcarbonyl)amino]-3-(2,2,2-trifluoroethoxy)-1H-indole-2-carboxamide] | 97
CCOc1c(C(=O)NC2CCN(C(=O)CO)CC2)n(C)c2nc(CC)c(NC(=O)c3ccccc3)cc12 [Example 45, 3-ethoxy-6-ethyl-N-[1-(hydroxyacetyl)piperidin-4-yl]-1-methyl-5-[(phenylcarbonyl)amino]-1H-pyrrolo[2,3-b]pyridine-2-carboxamide] | 98
CCOc1c(C(=O)NC2CCN(C(=O)CO)CC2)n(C)c2cc(CC)c(NC(=O)c3ccccc3)nc12 [Example 129, 3-ethoxy-6-ethyl-N-[1-(hydroxyacetyl)piperidin-4-yl]-1-methyl-5-[(phenylcarbonyl)amino]-1H-pyrrolo[3,2-b]pyridine-2-carboxamide] | 92
CCc1nc2c(cc1NC(=O)c1cccc(F)c1)c(OCC(F)(F)F)c(C(=O)NC1CCN(C(=O)CO)CC1)n2C [Example 30, 6-ethyl-5-{[(3-fluorophenyl)carbonyl]amino}-N-[1-(hydroxyacetyl)piperidin-4-yl]-1-methyl-3-(2,2,2-trifluoroethoxy)-1H-pyrrolo[2,3-b]pyridine-2-carboxamide] | 97
CCc1nc2c(cc1NC(=O)c1ccccc1F)c(OCC(F)(F)F)c(C(=O)NC1CCN(C(=O)CO)CC1)n2C [Example 22, 6-ethyl-5-{[(2-fluorophenyl)carbonyl]amino}-N-[1-(hydroxyacetyl)piperidin-4-yl]-1-methyl-3-(2,2,2-trifluoroethoxy)-1H-pyrrolo[2,3-b]pyridine-2-carboxamide] | 93
Cc1cc2c(nc1-c1ccccc1)c(OCC(F)(F)F)c(C(=O)NC1CCN(C(=O)CO)CC1)n2C [Example 136, N-[1-(hydroxyacetyl)piperidin-4-yl]-1,6-dimethyl-5-phenyl-3-(2,2,2-trifluoroethoxy)-1H-pyrrolo[3,2-b]pyridine-2-carboxamide] | 95
